From ChEMBL document CHEMBL4028801, “A multifactorial approach to hepatobiliary transporter assessment enables improved therapeutic compound development” (Toxicol Sci, 2013)
Counter-ions that a name gives are not always drawn.

Experiments:
[1] = target: Bile salt export pump (Homo sapiens, UniProt O95342); test: Inhibition of human BSEP overexpressed in Sf9 cell membrane vesicles assessed as uptake of [3H]-taurocholate in presence of ATP measured after 15 to 20 mins by membrane vesicle transport assay; type: ADME, cell-based
Bile salt export pump, sequence (O95342 whole entry): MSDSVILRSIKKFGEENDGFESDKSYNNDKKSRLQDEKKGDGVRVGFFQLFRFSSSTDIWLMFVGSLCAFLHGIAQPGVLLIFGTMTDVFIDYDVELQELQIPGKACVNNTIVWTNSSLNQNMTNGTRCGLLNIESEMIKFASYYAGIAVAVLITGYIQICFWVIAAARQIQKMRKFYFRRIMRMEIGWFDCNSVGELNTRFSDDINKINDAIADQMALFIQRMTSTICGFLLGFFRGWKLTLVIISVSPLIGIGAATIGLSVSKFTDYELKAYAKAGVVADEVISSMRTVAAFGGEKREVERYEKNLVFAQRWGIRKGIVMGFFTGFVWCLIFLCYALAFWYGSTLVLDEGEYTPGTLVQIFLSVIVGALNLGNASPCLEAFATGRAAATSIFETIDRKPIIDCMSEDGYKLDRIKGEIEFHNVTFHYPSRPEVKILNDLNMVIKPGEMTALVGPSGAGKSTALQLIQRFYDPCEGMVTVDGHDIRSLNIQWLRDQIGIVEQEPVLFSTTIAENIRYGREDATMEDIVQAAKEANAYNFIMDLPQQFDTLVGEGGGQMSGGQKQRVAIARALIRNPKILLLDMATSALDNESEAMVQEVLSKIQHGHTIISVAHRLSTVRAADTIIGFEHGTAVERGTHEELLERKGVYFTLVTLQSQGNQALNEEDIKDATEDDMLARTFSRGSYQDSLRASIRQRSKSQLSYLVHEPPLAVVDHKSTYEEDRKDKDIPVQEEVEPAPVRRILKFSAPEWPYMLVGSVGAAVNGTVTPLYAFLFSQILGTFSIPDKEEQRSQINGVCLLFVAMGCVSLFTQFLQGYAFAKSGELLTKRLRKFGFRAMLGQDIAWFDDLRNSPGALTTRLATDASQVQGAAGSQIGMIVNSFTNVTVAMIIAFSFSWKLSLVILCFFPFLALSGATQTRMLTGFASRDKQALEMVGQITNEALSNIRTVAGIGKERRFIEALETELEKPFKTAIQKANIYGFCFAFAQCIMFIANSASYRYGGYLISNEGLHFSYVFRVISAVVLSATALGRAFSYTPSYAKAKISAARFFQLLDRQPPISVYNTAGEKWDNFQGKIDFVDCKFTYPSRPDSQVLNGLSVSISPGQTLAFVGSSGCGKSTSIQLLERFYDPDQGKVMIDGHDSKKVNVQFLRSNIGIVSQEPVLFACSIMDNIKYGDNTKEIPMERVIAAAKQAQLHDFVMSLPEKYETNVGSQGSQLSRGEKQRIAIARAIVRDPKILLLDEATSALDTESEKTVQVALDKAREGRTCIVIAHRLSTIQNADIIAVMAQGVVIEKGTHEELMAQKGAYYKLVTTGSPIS

[2] = target: ATP-binding cassette sub-family C member 2 (Homo sapiens, UniProt Q92887); test: Inhibition of human MRP2 overexpressed in Sf9 cell membrane vesicles assessed as uptake of [3H]-estradiol-17beta-D-glucuronide in presence of ATP and GSH measured after 20 mins by membrane vesicle transport assay
ATP-binding cassette sub-family C member 2, sequence (Q92887 whole entry): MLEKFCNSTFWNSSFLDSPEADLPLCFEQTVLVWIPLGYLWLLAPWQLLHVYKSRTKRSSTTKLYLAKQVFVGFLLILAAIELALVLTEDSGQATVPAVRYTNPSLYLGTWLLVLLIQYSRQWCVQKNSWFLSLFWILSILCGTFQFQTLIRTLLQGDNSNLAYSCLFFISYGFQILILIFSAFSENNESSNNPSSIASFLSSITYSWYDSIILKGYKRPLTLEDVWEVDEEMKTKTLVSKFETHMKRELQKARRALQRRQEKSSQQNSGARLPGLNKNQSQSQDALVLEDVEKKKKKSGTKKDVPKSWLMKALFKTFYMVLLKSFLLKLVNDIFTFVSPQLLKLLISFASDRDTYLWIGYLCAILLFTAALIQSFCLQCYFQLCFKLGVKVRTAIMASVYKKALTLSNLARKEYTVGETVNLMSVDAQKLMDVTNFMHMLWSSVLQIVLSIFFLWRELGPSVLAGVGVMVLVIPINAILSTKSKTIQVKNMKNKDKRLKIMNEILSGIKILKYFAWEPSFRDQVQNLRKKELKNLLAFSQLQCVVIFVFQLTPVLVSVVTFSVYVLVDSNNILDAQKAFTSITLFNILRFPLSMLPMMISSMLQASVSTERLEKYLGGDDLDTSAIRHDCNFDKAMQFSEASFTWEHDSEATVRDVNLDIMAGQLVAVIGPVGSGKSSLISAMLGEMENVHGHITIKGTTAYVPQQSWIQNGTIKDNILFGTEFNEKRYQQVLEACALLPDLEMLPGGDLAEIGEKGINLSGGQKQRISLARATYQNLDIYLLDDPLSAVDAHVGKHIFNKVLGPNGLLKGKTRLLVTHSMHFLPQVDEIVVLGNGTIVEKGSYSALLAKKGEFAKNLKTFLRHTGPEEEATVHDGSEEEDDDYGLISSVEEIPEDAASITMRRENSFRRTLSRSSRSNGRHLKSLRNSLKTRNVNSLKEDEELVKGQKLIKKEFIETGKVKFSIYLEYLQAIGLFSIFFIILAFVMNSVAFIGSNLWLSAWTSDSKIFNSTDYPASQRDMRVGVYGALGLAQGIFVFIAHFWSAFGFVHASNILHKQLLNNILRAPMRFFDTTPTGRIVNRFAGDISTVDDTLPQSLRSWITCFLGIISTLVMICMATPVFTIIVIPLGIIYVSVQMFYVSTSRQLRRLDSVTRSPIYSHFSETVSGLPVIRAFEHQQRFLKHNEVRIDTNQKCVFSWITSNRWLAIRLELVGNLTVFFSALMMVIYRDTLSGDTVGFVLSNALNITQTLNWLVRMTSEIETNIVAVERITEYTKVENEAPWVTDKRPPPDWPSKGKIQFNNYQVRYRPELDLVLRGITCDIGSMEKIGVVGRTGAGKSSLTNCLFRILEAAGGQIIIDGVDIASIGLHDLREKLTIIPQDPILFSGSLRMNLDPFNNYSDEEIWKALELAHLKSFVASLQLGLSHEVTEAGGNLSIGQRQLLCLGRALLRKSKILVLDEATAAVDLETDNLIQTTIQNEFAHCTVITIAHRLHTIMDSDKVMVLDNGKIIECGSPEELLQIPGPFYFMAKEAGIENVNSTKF

[3] = target: T1, ATP-binding cassette sub-family C member 4 (Homo sapiens, UniProt O15439); test: Inhibition of human MRP4 overexpressed in Sf9 cell membrane vesicles assessed as uptake of [3H]-estradiol-17beta-D-glucuronide in presence of ATP and GSH measured after 20 mins by membrane vesicle transport assay; type: ADME, cell-based
T1 sequence (O15439 whole entry): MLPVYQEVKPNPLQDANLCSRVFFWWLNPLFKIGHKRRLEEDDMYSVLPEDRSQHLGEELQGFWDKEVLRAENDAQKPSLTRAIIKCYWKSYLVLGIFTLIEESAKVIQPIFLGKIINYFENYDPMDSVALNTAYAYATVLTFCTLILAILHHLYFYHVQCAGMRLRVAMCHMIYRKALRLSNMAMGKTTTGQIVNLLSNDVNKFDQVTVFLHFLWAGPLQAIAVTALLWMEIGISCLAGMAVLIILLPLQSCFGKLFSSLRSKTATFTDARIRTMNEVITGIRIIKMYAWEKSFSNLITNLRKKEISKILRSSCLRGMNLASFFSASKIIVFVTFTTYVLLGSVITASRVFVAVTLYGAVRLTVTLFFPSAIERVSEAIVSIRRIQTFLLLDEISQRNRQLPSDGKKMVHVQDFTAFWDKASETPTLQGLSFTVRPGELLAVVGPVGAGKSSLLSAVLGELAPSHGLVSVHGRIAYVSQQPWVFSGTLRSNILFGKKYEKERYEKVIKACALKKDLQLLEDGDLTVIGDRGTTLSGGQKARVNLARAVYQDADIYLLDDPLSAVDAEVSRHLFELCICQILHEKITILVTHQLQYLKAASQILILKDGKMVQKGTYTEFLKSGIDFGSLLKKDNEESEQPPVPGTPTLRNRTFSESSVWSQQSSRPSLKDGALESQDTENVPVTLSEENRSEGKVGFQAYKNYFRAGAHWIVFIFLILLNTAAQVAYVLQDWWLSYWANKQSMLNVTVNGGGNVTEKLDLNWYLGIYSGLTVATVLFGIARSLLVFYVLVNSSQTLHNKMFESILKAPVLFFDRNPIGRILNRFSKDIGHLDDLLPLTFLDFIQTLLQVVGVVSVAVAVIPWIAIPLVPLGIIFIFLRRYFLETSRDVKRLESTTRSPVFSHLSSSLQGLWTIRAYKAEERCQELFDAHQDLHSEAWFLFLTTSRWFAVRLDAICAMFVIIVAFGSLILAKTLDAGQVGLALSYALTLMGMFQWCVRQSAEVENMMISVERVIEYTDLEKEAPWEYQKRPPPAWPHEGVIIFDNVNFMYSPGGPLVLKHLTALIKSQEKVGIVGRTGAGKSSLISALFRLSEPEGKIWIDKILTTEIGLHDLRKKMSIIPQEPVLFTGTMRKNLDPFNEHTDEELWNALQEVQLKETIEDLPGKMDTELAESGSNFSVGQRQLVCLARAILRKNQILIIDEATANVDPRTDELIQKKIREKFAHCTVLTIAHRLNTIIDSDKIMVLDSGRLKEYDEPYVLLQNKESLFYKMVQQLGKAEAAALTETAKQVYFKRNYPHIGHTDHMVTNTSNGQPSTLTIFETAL

[4] = target: ATP-binding cassette sub-family C member 3 (Homo sapiens, UniProt O15438); test: Inhibition of human MRP3 overexpressed in Sf9 insect cell membrane vesicles assessed as uptake of [3H]-estradiol-17beta-D-glucuronide in presence of ATP and GSH measured after 10 mins by membrane vesicle transport assay; type: ADME, cell-based
ATP-binding cassette sub-family C member 3, sequence (O15438 whole entry): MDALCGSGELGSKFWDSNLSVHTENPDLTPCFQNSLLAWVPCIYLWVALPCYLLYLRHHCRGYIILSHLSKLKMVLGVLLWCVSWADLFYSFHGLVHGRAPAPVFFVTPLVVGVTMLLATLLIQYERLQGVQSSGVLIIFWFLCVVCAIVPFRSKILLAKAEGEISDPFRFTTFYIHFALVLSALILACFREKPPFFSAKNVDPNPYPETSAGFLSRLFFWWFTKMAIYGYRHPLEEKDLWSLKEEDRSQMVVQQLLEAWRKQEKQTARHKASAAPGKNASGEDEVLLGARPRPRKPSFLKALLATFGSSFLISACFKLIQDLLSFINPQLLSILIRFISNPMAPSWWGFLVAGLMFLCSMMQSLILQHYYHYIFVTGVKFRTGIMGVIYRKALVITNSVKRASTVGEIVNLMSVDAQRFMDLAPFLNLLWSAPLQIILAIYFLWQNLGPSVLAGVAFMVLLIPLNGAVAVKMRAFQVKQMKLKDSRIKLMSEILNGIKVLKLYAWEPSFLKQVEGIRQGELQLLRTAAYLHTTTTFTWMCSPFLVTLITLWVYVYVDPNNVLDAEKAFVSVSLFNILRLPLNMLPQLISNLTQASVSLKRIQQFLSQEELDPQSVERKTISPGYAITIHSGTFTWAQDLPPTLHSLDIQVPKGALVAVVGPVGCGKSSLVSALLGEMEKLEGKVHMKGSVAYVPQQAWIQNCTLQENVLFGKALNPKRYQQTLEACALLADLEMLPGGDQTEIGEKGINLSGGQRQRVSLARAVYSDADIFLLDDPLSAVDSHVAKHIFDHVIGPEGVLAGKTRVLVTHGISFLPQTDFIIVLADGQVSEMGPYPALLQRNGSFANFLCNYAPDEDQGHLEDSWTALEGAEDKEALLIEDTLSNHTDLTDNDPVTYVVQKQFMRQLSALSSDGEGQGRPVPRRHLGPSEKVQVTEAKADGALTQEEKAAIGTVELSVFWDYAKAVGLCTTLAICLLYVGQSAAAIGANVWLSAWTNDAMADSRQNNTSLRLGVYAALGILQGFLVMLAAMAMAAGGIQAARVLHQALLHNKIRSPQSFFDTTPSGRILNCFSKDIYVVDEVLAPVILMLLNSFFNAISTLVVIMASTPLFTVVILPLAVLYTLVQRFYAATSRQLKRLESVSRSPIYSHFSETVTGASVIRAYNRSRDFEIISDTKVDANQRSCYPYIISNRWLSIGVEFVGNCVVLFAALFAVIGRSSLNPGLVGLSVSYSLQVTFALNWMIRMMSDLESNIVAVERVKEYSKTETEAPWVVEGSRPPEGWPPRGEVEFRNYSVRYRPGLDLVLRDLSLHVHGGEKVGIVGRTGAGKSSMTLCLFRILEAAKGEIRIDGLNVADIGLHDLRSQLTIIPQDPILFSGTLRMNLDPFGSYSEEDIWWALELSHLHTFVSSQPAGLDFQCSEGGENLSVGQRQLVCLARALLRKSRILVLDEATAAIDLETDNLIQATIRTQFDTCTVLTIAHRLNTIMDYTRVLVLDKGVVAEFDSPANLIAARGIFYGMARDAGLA

| SMILES | IC50 [1] [µM] | IC50 [2] [µM] | IC50 [3] [µM] | IC50 [4] [µM] |
| --- | --- | --- | --- | --- |
| Nc1nc2c(c(=O)[nH]1)N(C=O)C(CNc1ccc(C(=O)N[C@@H](CCC(=O)O)C(=O)O)cc1)CN2 (stereo not given in full) [LEUCOVORIN CALCIUM] | > 133 | > 133 | > 133 | > 133 |
| Cn1nnc2c(C(N)=O)ncn2c1=O [TEMOZOLOMIDE] | > 133 | > 133 | > 133 | > 133 |
| C#C[C@]1(O)CC[C@H]2[C@@H]3CCc4cc(O)ccc4[C@H]3CC[C@@]21C [ETHINYL ESTRADIOL] | 14 | > 133 | > 133 | > 133 |
| O=C(NC1CCN(CCc2c[nH]c3ccccc23)CC1)c1ccccc1 [INDORAMIN] | > 133 | > 133 | > 133 | > 133 |
| [H]/N=C(/N)N/C(=N/[H])NCCc1ccccc1 [PHENFORMIN] | > 133 | > 133 | > 133 | > 133 |
| CC(=O)Oc1ccccc1C(=O)Nc1ncc([N+](=O)[O-])s1 [NITAZOXANIDE] | > 133 | > 133 | > 133 | > 133 |
| CN1CCN(C2=Nc3cc(Cl)ccc3Nc3ccccc32)CC1 [CLOZAPINE] | > 133 | > 133 | > 133 | > 133 |
| CCCN(CCC)S(=O)(=O)c1ccc(C(=O)O)cc1 [PROBENECID] | > 133 | > 133 | > 133 | > 133 |
| NC(=O)c1ncn([C@@H]2O[C@H](CO)[C@@H](O)[C@H]2O)c1O [MIZORIBINE] | > 133 | > 133 | > 133 | > 133 |
| CCCNC(=O)NS(=O)(=O)c1ccc(Cl)cc1 [CHLORPROPAMIDE] | > 133 | > 133 | > 133 | > 133 |
| CC(C)(C)NCC(O)COc1cccc2c1CC(O)C(O)C2 (stereo not given) [NADOLOL] | > 133 | > 133 | > 133 | > 133 |
| CC(C)c1nc(N(C)S(C)(=O)=O)nc(-c2ccc(F)cc2)c1/C=C/[C@@H](O)C[C@@H](O)CC(=O)O [ROSUVASTATIN CALCIUM] | > 133 | > 133 | 26.8 | 58.3 |
| O=C1CN=C(c2ccccc2)c2cc([N+](=O)[O-])ccc2N1 [NITRAZEPAM] | > 133 | > 133 | > 133 | > 133 |
| CC[C@H](C)C(=O)O[C@H]1CCC=C2C=C[C@H](C)[C@H](CC[C@@H]3C[C@@H](O)CC(=O)O3)[C@H]21 [MEVASTATIN] | 27 | > 133 | > 133 | > 133 |
| CC1(C)O[C@@H]2[C@@H](CO[C@@]3(COS(N)(=O)=O)OC(C)(C)O[C@@H]23)O1 [TOPIRAMATE] | > 133 | > 133 | > 133 | > 133 |
| CCN(CC)CCNC(=O)c1ccc(NC(C)=O)cc1 [ACECAINIDE] | > 133 | > 133 | > 133 | > 133 |
| O=C(CC(=O)C(F)(F)F)c1cccs1 | > 133 | > 133 | > 133 | > 133 |
| O=C(O)c1ccccc1-c1c2ccc(=O)cc-2oc2cc(O)ccc12 | > 133 | > 133 | > 133 | > 133 |
| CC[C@@H](C(N)=O)N1CCCC1=O | > 133 | > 133 | > 133 | > 133 |
| CC(=O)Nc1ccc(/C=N/NC(N)=S)cc1 [AMITHIOZONE] | > 133 | > 133 | > 133 | > 133 |

| SMILES | IC50 [1] [µM] | IC50 [2] [µM] | IC50 [3] [µM] | IC50 [4] [µM] |
| --- | --- | --- | --- | --- |
| NC(=O)CC[C@@H]1NC(=O)[C@H](Cc2ccccc2)NC(=O)[C@H](Cc2ccc(O)cc2)NC(=O)[C@@H](N)CSSC[C@@H](C(=O)N2CCC[C@H]2C(=O)N[C@@H](CCCN=C(N)N)C(=O)NCC(N)=O)NC(=O)[C@H](CC(N)=O)NC1=O [VASOPRESSIN] | > 133 | > 133 | > 133 | > 133 |
| CCN(CC)CCOc1ccc(C(=C(Cl)c2ccccc2)c2ccccc2)cc1 [CLOMIPHENE] | > 133 | > 133 | > 133 | > 133 |
| c1ccc(-c2ccc(C(c3ccccc3)n3ccnc3)cc2)cc1 (stereo not given) [BIFONAZOLE] | 27.1 | > 133 | > 133 | > 133 |
| Cc1cn([C@@H]2C[C@@H](O)[C@H](CO)O2)c(=O)[nH]c1=O [TELBIVUDINE] | > 133 | > 133 | > 133 | > 133 |
| CC(=O)NS(=O)(=O)c1ccc(N)cc1 | > 133 | > 133 | > 133 | > 133 |
| CC(=O)OCC(CCn1cnc2cnc(N)nc21)COC(C)=O [FAMCICLOVIR] | > 133 | > 133 | > 133 | > 133 |
| Cn1c(=O)n(-c2ccc(C(C)(C)C#N)cc2)c2c3cc(-c4cnc5ccccc5c4)ccc3ncc21 [DACTOLISIB] | 7.9 | > 133 | > 133 | > 133 |
| Cc1noc(NS(=O)(=O)c2ccc(N)cc2)c1C [SULFISOXAZOLE] | > 133 | > 133 | > 133 | > 133 |
| NC(=O)c1ncn([C@@H]2O[C@H](CO)[C@@H](O)[C@H]2O)n1 [RIBAVIRIN] | > 133 | > 133 | > 133 | > 133 |
| Clc1ccc(CO/N=C(\Cn2ccnc2)c2ccc(Cl)cc2Cl)c(Cl)c1 [OXICONAZOLE NITRATE] | 49.3 | > 133 | > 133 | > 133 |
| c1cc(CN2CCCNCCNCCCNCC2)ccc1CN1CCCNCCNCCCNCC1 [PLERIXAFOR] | > 133 | > 133 | > 133 | > 133 |
| c1cnc(N2CCN(Cc3ccc4c(c3)OCO4)CC2)nc1 [PIRIBEDIL] | > 133 | > 133 | > 133 | > 133 |
| CC(CN1c2ccccc2Sc2ccccc21)N(C)C (stereo not given) [PROMETHAZINE] | > 133 | > 133 | > 133 | > 133 |
| Cc1oncc1C(=O)Nc1ccc(C(F)(F)F)cc1 [LEFLUNOMIDE] | > 133 | > 133 | > 133 | > 133 |
| N=C(N)NC(=O)Cc1c(Cl)cccc1Cl [GUANFACINE] | > 133 | > 133 | > 133 | > 133 |
| CC[C@]1(O)C[C@H]2CN(CCc3c([nH]c4ccccc34)[C@@](C(=O)OC)(c3cc4c(cc3OC)N(C=O)[C@H]3[C@@](O)(C(=O)OC)[C@H](OC(C)=O)[C@]5(CC)C=CCN6CC[C@]43[C@@H]65)C2)C1 [VINCRISTINE SULFATE] | > 133 | > 133 | > 133 | > 133 |
| OC(CNCC(O)C1CCc2cc(F)ccc2O1)C1CCc2cc(F)ccc2O1 (stereo not given) [NEBIVOLOL HYDROCHLORIDE] | > 133 | > 133 | > 133 | > 133 |
| CC(C)(C)NCC(O)c1cc(O)cc(O)c1 (stereo not given) [TERBUTALINE] | > 133 | > 133 | > 133 | > 133 |
| N#C[C@@H]1CCCN1C(=O)CNC12CC3CC(CC(O)(C3)C1)C2 [VILDAGLIPTIN] | > 133 | > 133 | > 133 | > 133 |
| CCN1CCC[C@H]1CNC(=O)c1cc(S(N)(=O)=O)ccc1OC [LEVOSULPIRIDE] | > 133 | > 133 | > 133 | > 133 |
